{
  "source": "paper PMC3149900",
  "about": "(Chemical biology & drug design, 2010)",
  "conditions": "PAMPA",
  "data": [
    {"molecule": "CC(=O)CC(c1ccccc1)c1c(O)c2ccccc2oc1=O", "note": "(stereo not shown) [Warfarin, warfarin]", "values": [
      {"measurement": "Log (Pe)", "value": "−4.95"}
    ]}
  ]
}
